Laboratory results from PubChem BioAssay AID248 (DTP/NCI, 2004).
“And” between values parts separate entries of the source, which are not always exact repeats. Identical values can stand only once. Inconclusive results and toxic doses are left out.

Tested on: L1210 leukemia ip in BDF1 mice, survival T/C
Experiment: NCI In Vivo Anticancer Drug Screen. Data for tumor model L1210 Leukemia (intraperitoneal) in B6D2F1 (BDF1) mice
Details: endpoint: mean survival time, higher = longer survival
Procedure, shortened: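 Antitumor effect is assessed in tumor-bearing animals. Survival in the compound arm is compared with a vehicle-dosed control arm and expressed as their quotient.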

[1] = dose: 100.0 mg/kg/injection, schedule: Q04DX002 (ip), vehicle: saline with Tween-80
[2] = dose: 200.0 mg/kg/injection, schedule: Q04DX002 (ip), vehicle: saline with Tween-80
[3] = dose: 50.0 mg/kg/injection, schedule: Q01DX001 (ip), vehicle: saline
[4] = dose: 100.0 mg/kg/injection, schedule: Q01DX001 (ip), vehicle: saline
[5] = dose: 200.0 mg/kg/injection, schedule: Q01DX001 (ip), vehicle: saline
[6] = dose: 400.0 mg/kg/injection, schedule: Q01DX001 (ip), vehicle: saline

Question: `COCCCN=C(N)c1ccc(NC(=O)c2ccc(C(=O)Nc3ccc(C(N)=NCCCOC)cc3)cc2)cc1` was tested. Which T/C (dose: 0.75 mg/kg/injection, schedule: Q01DX Z (ip), vehicle: saline) did it give?
Answer: 114 % of control

Question: What about the T/C (dose: 1.0 mg/kg/injection, schedule: Q01DX006 (iv), vehicle: saline) of the same compound?
Answer: 106 % of control

Question: What about the T/C (dose: 1.0 mg/kg/injection, schedule: Q01DX Z (ip), vehicle: saline) of the same compound?
Answer: 119 % of control

Question: What about the T/C (dose: 1.0 mg/kg/injection, schedule: Q01DX Z (sc), vehicle: saline) of the same compound?
Answer: 102 % of control

Question: And the T/C (dose: 1.0 mg/kg/injection, schedule: Q02DX004 (im), vehicle: saline)?
Answer: 96 % of control

Question: And the T/C (dose: 2.0 mg/kg/injection, schedule: Q01DX006 (iv), vehicle: saline)?
Answer: 98 % of control

Question: And the T/C (dose: 2.0 mg/kg/injection, schedule: Q01DX Z (sc), vehicle: saline)?
Answer: 90 % of control

Question: What about the T/C (dose: 2.0 mg/kg/injection, schedule: Q02DX004 (im), vehicle: saline) of the same compound?
Answer: 107 % of control

Question: And the T/C (dose: 3.0 mg/kg/injection, schedule: Q01DX Z (ip), vehicle: saline)?
Answer: 156 % of control and 183 % of control

Question: And the T/C (dose: 4.0 mg/kg/injection, schedule: Q01DX006 (iv), vehicle: saline)?
Answer: 122 % of control

Question: What about the T/C (dose: 4.0 mg/kg/injection, schedule: Q01DX Z (ip), vehicle: saline) of the same compound?
Answer: 223 % of control

Question: What about the T/C (dose: 4.0 mg/kg/injection, schedule: Q01DX Z (sc), vehicle: saline) of the same compound?
Answer: 154 % of control

Question: And the T/C (dose: 4.0 mg/kg/injection, schedule: Q02DX004 (im), vehicle: saline)?
Answer: 106 % of control

Question: And the T/C (dose: 6.0 mg/kg/injection, schedule: Q01DX Z (ip), vehicle: saline)?
Answer: 269 % of control

Question: What about the T/C (dose: 6.0 mg/kg/injection, schedule: Q01DX Z (oral), vehicle: saline) of the same compound?
Answer: 97 % of control

Question: And the T/C (dose: 8.0 mg/kg/injection, schedule: Q01DX006 (iv), vehicle: saline)?
Answer: 189 % of control

Question: And the T/C (dose: 8.0 mg/kg/injection, schedule: Q01DX Z (sc), vehicle: saline)?
Answer: 158 % of control

Question: And the T/C (dose: 12.0 mg/kg/injection, schedule: Q01DX Z (oral), vehicle: saline)?
Answer: 100 % of control

Question: What about the T/C (dose: 15.0 mg/kg/injection, schedule: Q01DX Z (ip), vehicle: saline) of the same compound?
Answer: 115 % of control

Question: What about the T/C (dose: 16.0 mg/kg/injection, schedule: Q01DX Z (ip), vehicle: saline) of the same compound?
Answer: 112 % of control

Question: What about the T/C (dose: 16.0 mg/kg/injection, schedule: Q01DX Z (sc), vehicle: saline) of the same compound?
Answer: 116 % of control

Question: And the T/C (dose: 16.0 mg/kg/injection, schedule: Q02DX004 (im), vehicle: saline)?
Answer: 154 % of control

Question: What about the T/C (dose: 24.0 mg/kg/injection, schedule: Q01DX Z (oral), vehicle: saline) of the same compound?
Answer: 102 % of control

Question: And the T/C (dose: 32.0 mg/kg/injection, schedule: Q02DX004 (im), vehicle: saline)?
Answer: 118 % of control

Question: What about the T/C (dose: 48.0 mg/kg/injection, schedule: Q01DX Z (oral), vehicle: saline) of the same compound?
Answer: 100 % of control

Question: And the T/C (dose: 62.5 mg/kg/injection, schedule: Q## X010 (oral), vehicle: saline)?
Answer: 96 % of control

Question: And the T/C (dose: 250.0 mg/kg/injection, schedule: Q## X010 (oral), vehicle: saline)?
Answer: 119 % of control

Question: How did the T/C (dose: 100.0 mg/kg/injection, schedule: Q01DX009 (ip), vehicle: saline with Tween-80) turn out when `O=C(Nc1ccccc1C(F)(F)F)Oc1ccc(Cl)cc1Cc1ccccc1` was run?
Answer: 93 % of control

Question: What about the T/C [1] of the same compound?
Answer: 117 % of control

Question: And the T/C (dose: 200.0 mg/kg/injection, schedule: Q01DX009 (ip), vehicle: saline with Tween-80)?
Answer: 101 % of control

Question: What about the T/C [2] of the same compound?
Answer: 98 % of control

Question: And the T/C (dose: 400.0 mg/kg/injection, schedule: Q01DX009 (ip), vehicle: saline with Tween-80)?
Answer: 101 % of control

Question: What about the T/C (dose: 400.0 mg/kg/injection, schedule: Q04DX002 (ip), vehicle: saline with Tween-80) of the same compound?
Answer: 98 % of control

Question: Which results are given for `CCCCCCCC(=O)N1CCCCC1CC` (centres undefined)?
Answer: T/C [1]: 96 % of control; T/C [2]: 86 % of control

Question: Which results are given for `CCCCC(=O)N(CC)C(=NCC)c1ccc(NC(=O)c2ccc(C(=O)Nc3ccc(C(=NCC)N(CC)C(=O)CCCC)cc3)cc2)cc1`?
Answer: T/C (dose: 25.0 mg/kg/injection, schedule: Q01DX015 (ip), vehicle: methylcellulose (MC)): 90 % of control; T/C (dose: 50.0 mg/kg/injection, schedule: Q01DX015 (ip), vehicle: methylcellulose (MC)): 90 % of control; T/C (dose: 100.0 mg/kg/injection, schedule: Q01DX015 (ip), vehicle: methylcellulose (MC)): 96 % of control; T/C (dose: 200.0 mg/kg/injection, schedule: Q01DX015 (ip), vehicle: methylcellulose (MC)): 94 % of control

Question: Which T/C (dose: 100.0 mg/kg/injection, schedule: Q01DX001 (ip), vehicle: other) does the source give for `O=C(CCC(C(=O)Nc1ccccc1)C(O)(c1ccccc1)c1ccccc1)Nc1ccccc1` (centres undefined) here?
Answer: 91 % of control

Question: What about the T/C (dose: 200.0 mg/kg/injection, schedule: Q01DX001 (ip), vehicle: other) of the same compound?
Answer: 91 % of control

Question: And the T/C (dose: 400.0 mg/kg/injection, schedule: Q01DX001 (ip), vehicle: other)?
Answer: 89 % of control

Question: Which T/C (dose: 100.0 mg/kg/injection, schedule: Q04DX003 (ip), vehicle: saline with Tween-80) does the source give for `O=C(N=C(c1ccccc1)c1ccccc1)c1ccccc1` here?
Answer: 90 % of control

Question: What about the T/C (dose: 200.0 mg/kg/injection, schedule: Q04DX003 (ip), vehicle: saline with Tween-80) of the same compound?
Answer: 90 % of control

Question: What about the T/C (dose: 400.0 mg/kg/injection, schedule: Q04DX003 (ip), vehicle: saline with Tween-80) of the same compound?
Answer: 88 % of control

Question: With `O=C1/C(=C\c2cccnc2)CCCc2ccccc21` as the compound, how does the T/C (dose: 100.0 mg/kg/injection, schedule: Q04DX003 (ip), vehicle: carboxymethylcellulose (CMC)) read?
Answer: 100 % of control

Question: And the T/C (dose: 200.0 mg/kg/injection, schedule: Q04DX003 (ip), vehicle: carboxymethylcellulose (CMC))?
Answer: 98 % of control

Question: What about the T/C (dose: 400.0 mg/kg/injection, schedule: Q04DX003 (ip), vehicle: carboxymethylcellulose (CMC)) of the same compound?
Answer: 98 % of control

Question: For `N#CC1(N(O)C(=O)Nc2ccccc2Cl)CCCCC1`, which T/C (dose: 100.0 mg/kg/injection, schedule: Q01DX001 (ip), vehicle: carboxymethylcellulose (CMC)) is on record?
Answer: 100 % of control

Question: What about the T/C (dose: 200.0 mg/kg/injection, schedule: Q01DX001 (ip), vehicle: carboxymethylcellulose (CMC)) of the same compound?
Answer: 96 % of control

Question: What about the T/C (dose: 400.0 mg/kg/injection, schedule: Q01DX001 (ip), vehicle: carboxymethylcellulose (CMC)) of the same compound?
Answer: 91 % of control

Question: Which T/C (dose: 100.0 mg/kg/injection, schedule: Q01DX009 (ip), vehicle: saline sonified) does the source give for `O=C(Nc1ccccc1F)Nc1cc(Cl)ccc1Cl` here?
Answer: 91 % of control

Question: And the T/C (dose: 100.0 mg/kg/injection, schedule: Q04DX003 (ip), vehicle: Klucel (hydroxypropylcellulose) (HPC))?
Answer: 89 % of control

Question: And the T/C (dose: 200.0 mg/kg/injection, schedule: Q01DX009 (ip), vehicle: saline sonified)?
Answer: 93 % of control

Question: And the T/C (dose: 200.0 mg/kg/injection, schedule: Q04DX003 (ip), vehicle: Klucel (hydroxypropylcellulose) (HPC))?
Answer: 94 % of control

Question: And the T/C (dose: 400.0 mg/kg/injection, schedule: Q01DX009 (ip), vehicle: saline sonified)?
Answer: 93 % of control

Question: And the T/C (dose: 400.0 mg/kg/injection, schedule: Q04DX003 (ip), vehicle: Klucel (hydroxypropylcellulose) (HPC))?
Answer: 86 % of control

Question: `CCOC(=O)C1(C(=O)OCC)CC(C)C1` was tested. Which T/C (dose: 100.0 mg/kg/injection, schedule: Q01DX009 (ip), vehicle: saline) did it give?
Answer: 101 % of control

Question: What about the T/C (dose: 100.0 mg/kg/injection, schedule: Q04DX003 (ip), vehicle: saline) of the same compound?
Answer: 101 % of control

Question: What about the T/C (dose: 200.0 mg/kg/injection, schedule: Q01DX009 (ip), vehicle: saline) of the same compound?
Answer: 108 % of control

Question: And the T/C (dose: 200.0 mg/kg/injection, schedule: Q04DX003 (ip), vehicle: saline)?
Answer: 93 % of control

Question: What about the T/C (dose: 400.0 mg/kg/injection, schedule: Q01DX009 (ip), vehicle: saline) of the same compound?
Answer: 96 % of control

Question: What about the T/C (dose: 400.0 mg/kg/injection, schedule: Q04DX003 (ip), vehicle: saline) of the same compound?
Answer: 104 % of control

Question: What does the source list for `C1CNC(C2=NCCN2)=N1`?
Answer: T/C (dose: 100.0 mg/kg/injection, schedule: Q04DX002 (ip), vehicle: saline): 100 % of control; T/C (dose: 200.0 mg/kg/injection, schedule: Q04DX002 (ip), vehicle: saline): 100 % of control; T/C (dose: 400.0 mg/kg/injection, schedule: Q04DX002 (ip), vehicle: saline): 90 % of control

Question: Which results are given for `CN(C)C(=S)N=Nc1c(O)[nH]c2ccccc12`?
Answer: T/C (dose: 75.0 mg/kg/injection, schedule: Q01DX001 (ip), vehicle: other): 103 % of control; T/C (dose: 150.0 mg/kg/injection, schedule: Q01DX001 (ip), vehicle: other): 96 % of control; T/C (dose: 300.0 mg/kg/injection, schedule: Q01DX001 (ip), vehicle: other): 105 % of control

Question: For `Nc1ncnc2c1ncn2CCC(O)c1ccccc1` (centres undefined), which T/C [3] is on record?
Answer: 95 % of control

Question: What about the T/C [4] of the same compound?
Answer: 93 % of control

Question: And the T/C [5]?
Answer: 95 % of control

Question: What about the T/C [6] of the same compound?
Answer: 93 % of control

Question: With `COC(=O)C1CC(O)CC(C(=O)OC)O1` (centres undefined) as the compound, how does the T/C (dose: 75.0 mg/kg/injection, schedule: Q01DX001 (ip), vehicle: saline) read?
Answer: 109 % of control

Question: And the T/C (dose: 150.0 mg/kg/injection, schedule: Q01DX001 (ip), vehicle: saline)?
Answer: 93 % of control

Question: Which T/C [3] does the source give for `O=[N+]([O-])c1ccc(P(=O)(O)O)cc1` here?
Answer: 103 % of control

Question: What about the T/C [4] of the same compound?
Answer: 101 % of control

Question: What about the T/C [5] of the same compound?
Answer: 107 % of control

Question: What about the T/C [6] of the same compound?
Answer: 115 % of control
